Entries after “also recorded” stand apart in the source; their conditions may differ.
Key:
A431 tumor bearing mice = test: In vivo imaging of A431 tumor bearing mice (clearance, tumor localization, tumor ratios); parameters: species or system mouse; conditions: for Type of Clearance / Localization within the tumor: in vivo (rodents), A431 tumor; for Ratio T/B: tumor to background, p.i. 45 min; for Ratio T/M: tumor to muscle
[1] = cited from earlier work
[2] = biological target: T1, human thymidine kinase 1 (hTK1) (Homo sapiens, UniProt P04183); test: hTK-1 kinase phosphorylation, metabolites monitored by LC/MS-SIM; conditions: in vitro
T1 sequence (P04183 1-234): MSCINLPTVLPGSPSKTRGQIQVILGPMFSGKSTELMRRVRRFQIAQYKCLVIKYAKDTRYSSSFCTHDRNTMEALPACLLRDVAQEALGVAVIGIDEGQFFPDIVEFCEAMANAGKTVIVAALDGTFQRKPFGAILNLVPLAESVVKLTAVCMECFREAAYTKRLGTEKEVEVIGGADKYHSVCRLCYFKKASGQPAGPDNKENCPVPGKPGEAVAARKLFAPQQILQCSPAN

[3] = system: A431 cell line (human skin epidermoid carcinoma, high S phase); test: Cancer cell uptake, A431; conditions: (i) A431
[4] = system: SK-N-MC cell line (human brain neuroepithelioma, high S phase); test: Cancer cell uptake, SK-N-MC; conditions: for Cell Uptake: (ii) SK-N-MC; for Uptake and intracellular retention: SK-N-MC cells in vitro
DNA = test: Incorporation into DNA compared against FMAU; assay type: cell-based; conditions: data not shown
[5] = system: A172 cell line (human brain glioblastoma, low S phase); test: Cancer cell uptake, A172; conditions: for Cell Uptake: (iii) A172; for Uptake and intracellular retention: A172 cells in vitro
Balb/3T12-3 cells = test: Cell uptake, Balb/3T12-3; conditions: for Cell Uptake: (iv) Balb/3T12-3; for Uptake and intracellular retention: BalB/3T12-3 cells in vitro
[6] = system: normal mouse liver cells (AML12); test: Liver cell uptake by LC/MS-SIM, normal mouse liver cells; assay type: cell-based; conditions: AML12, in vitro
Description: (§1) The mouse liver cell uptake of a small number of thymidine analogs was higher than FLT and thymidine, and the levels of human liver cell uptake were similar to FLT and thymidine. Ideally, low levels of liver cell uptake help increase the tumor to background ratios in the PET image. Furthermore, we examined the metabolic profile of the leads (Ta-1, Ta-4, and Ta-10) in vitro using normal mouse liver cell line (AML12) and human liver cancer cell line (HepG2).

[7] = system: human liver cancer cells (HepG2); test: Liver cell uptake by LC/MS-SIM, human liver cancer cells; assay type: cell-based; conditions: HepG2, in vitro
Description: as §1

Row | Pi % (phosphorylation percentage) [2] | Localization within the tumor (A431 tumor bearing mice) | SMILES | Type of Clearance (A431 tumor bearing mice) | Cell Uptake [3] | Cell Uptake [4] | Cell Uptake [5] | other results
1 | 31% | – | Cc1cn([C@H]2CC(F)[C@@H](CO)O2)c(=O)[nH]c1=O (stereo partly shown) [FLT, 3′-[^18F]fluoro-3′-deoxythymidine, reference compound] | Clear through renal system; localize within the tumor | – | – | – | Injected dose per gram in tumors, on average ([1]; background section): 5%
2 | 6.1% | – | Cc1cn([C@H]2CC(n3cc(CF)nn3)[C@@H](CO)O2)c(=O)[nH]c1=O (stereo partly shown) [FLT-Click-1] | Clear very rapidly from the blood; localize mainly in the bladder | – | – | – | –
3 | 4.5% | ≤ 1 % ID/g | Cc1cn([C@H]2CC(F)[C@@H](CO)O2)c(=O)n(Cc2cn(CCF)nn2)c1=O (stereo partly shown) [FLT-Click-2] | Clear through the gut/ hepatobiliary system; localize moderately within the tumor | 0.003 | 0.080 | – | Ratio T/B (A431 tumor bearing mice): 1.75 (T/B; (p.i. 45 min)
4 | 0% | – | O=c1[nH]c(=O)n([C@H]2CC(O)[C@@H](CO)O2)cc1-c1cn(CCF)nn1 (stereo partly shown) [FLT-Click-3] | Clear through the gut; but did not localize within the tumor | – | – | – | Ratio T/B (A431 tumor bearing mice): 1.1 (T/B; p.i. 45 min)
5 | 80% | – | Cc1cn([C@@H]2O[C@H](CO)C(O)C2F)c(=O)[nH]c1=O (stereo partly drawn) [FMAU, 1-(2′-deoxy-2′-[^18F]fluoro-β-D-arabinofuranosyl)-5-methyluracil, reference compound] | – | 0.012 | 0.011 | 0.015 | Incorporation into DNA (DNA): very high; Type of Clearance ([1]; known / literature (Sun et al. 2005 for FMAU; 11C label for thymidine)): Hepatobiliary clearance^c
6 | 65.6% | ≤ 1 % ID/g | Cc1cn([C@H]2CC(O)[C@@H](CO)O2)c(=O)n(Cc2cn(CCF)nn2)c1=O (stereo partly shown) [Ta-1] | despite rapid gut clearance, a small percentage of the inject dose penetrated and localized within the tumor; also recorded: Clear through the gut/ hepatobiliary system; localize mainly in the gut; a small percentage of the inject dose penetrate and localize within the tumor | 0.045 | 0.081 | 0.042 | Ratio T/M (A431 tumor bearing mice; p.i. 50 min): 2.1 (T/M; p.i. 50 min); Uptake and intracellular retention [5]: favorably taken up and retained intracellularly; Cell Uptake (Balb/3T12-3 cells): 0.064; Uptake and intracellular retention (Balb/3T12-3 cells): favorably taken up and retained intracellularly; Uptake and intracellular retention [4]: favorably taken up and retained intracellularly
7 | 39.2% | – | Cc1cn([C@H]2CC(O)[C@@H](CO)O2)c(=O)n(Cc2cn(Cc3cc(F)ccn3)nn2)c1=O (stereo partly shown) [Ta-2] | – | 0.019 | 0.030 | 0.071 | Cell Uptake (Balb/3T12-3 cells): 0.090
8 | 25.5% | – | Cc1cn([C@H]2CC(O)[C@@H](CO)O2)c(=O)n(Cc2cn([C@H](C(=O)NCc3cc(F)ccn3)C(C)C)nn2)c1=O (stereo partly shown) [Ta-3] | large localization of the tracer in the gut and clearance through the bowels; also recorded: Clear through the bowels; localize mainly in the gut | 0.004 | 0.059 | 0.093 | Cell Uptake (Balb/3T12-3 cells): 0.117
9 | 77.4% | 2-3.5 % ID/g | Cc1cn([C@H]2CC(O)[C@@H](CO)O2)c(=O)n(CCF)c1=O (stereo partly shown) [Ta-4, 3-N-(2′-[^18F]fluoroethyl)-thymidine] | has less liver uptake than Ta-1, localizes more strongly within the A-431 based tumor and possesses a clearance mechanism similar to FLT; also recorded: Less liver uptake than Ta-1; localize more strongly within the A431 based tumor; possess a clearance mechanism similar to FLT | 0.172 | 0.218 | 0.142 | Ratio T/M (A431 tumor bearing mice; p.i. 50 min): 2.3 (T/M; p.i 50 min); Liver cell uptake [6]: less than Ta-1; Liver cell uptake [7]: less than Ta-1; Incorporation into DNA (DNA): substantially lower; Uptake and intracellular retention [5]: favorably taken up and retained intracellularly; Uptake and intracellular retention (Balb/3T12-3 cells): favorably taken up and retained intracellularly; Uptake and intracellular retention [4]: favorably taken up and retained intracellularly
10 | 51.9% | – | Cc1cn([C@H]2CC(O)[C@@H](CO)O2)c(=O)n(Cc2cn(Cc3cccc(Br)c3)nn2)c1=O (stereo partly shown) [Ta-4D] | – | – | – | – | –
11 | 9.2% | – | Cc1cn([C@H]2CC(F)[C@@H](CO)O2)c(=O)n(CCF)c1=O (stereo partly shown) [Ta-4F] | – | 0.075 | 0.063 | 0.067 | –
12 | 10.2% | – | Cc1cn([C@H]2CC(O)[C@@H](CO)O2)c(=O)n(CCn2cc(CF)nn2)c1=O (stereo partly shown) [Ta-5] | – | 0.068 | 0.072 | 0.051 | –
13 | 4.5% | – | Cc1cn([C@H]2CC(F)[C@@H](CO)O2)c(=O)n(CCF)c1=O (stereo partly shown) [Ta-6] | – | 0.023 | 0.007 | 0.004 | –
14 | 5.6% | ≤ 1 % ID/g | Cc1cn([C@@H]2O[C@H](CO)C(O)C2OCCF)c(=O)[nH]c1=O (stereo partly shown) [Ta-7] | Clear through the gut/ hepatobiliary system; localize mainly in the gut; a small percentage of the inject dose penetrate and localize within the tumor | 0.027 | 0.083 | 0.004 | Ratio T/M (A431 tumor bearing mice; time not given): 1.05 (T/M)
15 | 18.2% | ≤ 1 % ID/g | Cc1cn([C@@H]2O[C@H](CO)C(O)C2O)c(=O)n(CCF)c1=O (stereo partly shown) [Ta-8] | Clear through the renal system; localize moderately within the tumor | 0.052 | 0.097 | 0.018 | Ratio T/M (A431 tumor bearing mice; time not given): 0.99 (T/M)
16 | 1.4% | – | Cc1cn([C@@H]2O[C@H](CO)C(O)C2F)c(=O)n(CCF)c1=O (stereo partly shown) [Ta-9] | – | 0.027 | 0.014 | 0.009 | –
17 | 27.5% | ≤ 1 % ID/g | Cc1cn([C@H]2CC(O)[C@@H](CO)O2)c(=O)n(CC(O)CF)c1=O (stereo partly shown) [Ta-10] | Clear through the gut/renal system; localize moderately within the tumor | 0.023 | 0.031 | 0.017 | Ratio T/M (A431 tumor bearing mice; time not given): 0.35 (T/M); Incorporation into DNA (DNA): substantially lower
18 | 9.8% | ≤ 1 % ID/g | Cc1cn([C@@H]2O[C@H](CO)C(O)C2O)c(=O)n(CCF)c1=O (stereo partly shown) [Ta-11] | Clear through the renal system; localize moderately within the tumor | 0.03 | 0.02 | 0.006 | Ratio T/M (A431 tumor bearing mice; time not given): 0.52 (T/M)
19 | – | – | Cc1cn([C@H]2CC(O)[C@@H](CO)O2)c(=O)n(CCCF)c1=O (stereo partly shown) [Ta-14] | – | – | – | – | Incorporation into DNA (DNA): substantially lower
20 | 71.5% | – | Cc1cn([C@H]2CC(O)[C@@H](CO)O2)c(=O)n(Cc2cn([C@H](C(=O)NCc3ccccc3)C(C)C)nn2)c1=O (stereo partly shown) [Ta-6233] | – | – | – | – | –

— patent US7928210B2, “Nucleoside based proliferation imaging markers” (Siemens Medical Solutions USA, Inc., priority 2007, dated 2011)
